# Results reported in patent publication US8288393B2, “Nitrogen-containing heterocyclic compound and pest control agent” (Nippon Soda Co., Ltd., priority 2007, dated 2012).
# Tests used:
# Spodoptera litura = experiment: Efficacy against Spodoptera litura (cabbage leaf dip); format: in vivo; conditions: 125 ppm emulsion, cabbage leaves immersed, 2nd instar larvae, 25° C., 5 days later
# Experimental: (§1) The emulsion indicated in the aforementioned Preparation Example 2 was diluted with water to a compound concentration of 125 ppm in accordance with the formula thereof. After immersing cabbage leaves in the chemical liquid for 30 seconds and allowing to air dry, the cabbage leaves were placed in a Petri dish lined with filter paper and inoculated with five 2nd instar Spodoptera litura larvae. A glass cover was placed over the Petri dish, the dish was placed in a constant temperature chamber at a temperature of 25° C. and humidity of 65%, and viability was investigated 5 days later followed by determination of insect mortality rate. The test was repeated twice.
# [1] = system: Tetranychus urticae resistant to organic phosphorous agents; experiment: Efficacy against Tetranychus urticae (spray on kidney bean plants); format: in vivo; conditions: 125 ppm wettable powder sprayed on kidney bean plants, female adults, 25° C., 3 days later
# Excerpt: After inoculating the first true leaves of kidney bean plants planted in a no. 3 pot for which 7 to 10 days had elapsed since germination with female adult Tetranychus urticae resistant to organic phosphorous agents, a chemical liquid diluted with water to a compound concentration of 125 ppm was sprayed onto the kidney bean plants in accordance with the formula of the wettable powder indicated in the aforementioned Preparation Example 1. The kidney bean plants were placed in a constant temperature chamber at a temperature of 25° C. and humidity of 65% and insect mortality rate was investigated 3 days later. The test was repeated twice.
# Pseudaletia separata = experiment: Efficacy against Pseudaletia separata (corn leaf dip); format: in vivo; conditions: 125 ppm wettable powder, corn leaves immersed, 2nd instar larvae, 25° C., 5 days later
# Experimental: as §1, with “The wettable powder” for “The emulsion”, “Example 1” for “Example 2”, “immersing corn” for “immersing cabbage”, “the corn” for “the cabbage”, “instar Pseudaletia separata” for “instar Spodoptera litura”
# Aphis gossypii = experiment: Efficacy against Aphis gossypii (spray on infested cucumber plants); format: in vivo; conditions: 125 ppm emulsion sprayed on cucumber plants infested with nymphs, 25° C., 5 days later
# Excerpt: Cucumber plants planted in a no. 3 pot for which 10 days had elapsed since germination were inoculated with adult Aphis gossypii. The adult insects were removed after 1 day, and a chemical liquid diluted with water to a compound concentration of 125 ppm was sprayed onto the cucumber plants infested with nymphs laid by the adults in accordance with the emulsion formula indicated in the aforementioned Preparation Example 2. The cucumber plants were placed in a constant temperature chamber at a temperature of 25° C. and humidity of 65% and insect viability was investigated 5 days later followed by determination of insect mortality rate. The test was repeated twice.
# Culex pipiens molestus = experiment: Efficacy against Culex pipiens molestus (larvae in water); conditions: in vivo
# Experimental: 0.225 ml of distilled water containing 10 Culex pipiens molestus larvae 1 day after hatching and aquarium fish food (TetraMin, Tetra Japan) were placed in a 0.3 ml polystyrene test container.
# The compounds were prepared as 1% solutions using DMSO (containing 0.5% Tween 20), and further diluted to 0.01% with distilled water. 0.025 ml of the diluted chemical liquid were added to the test container containing the Culex pipiens molestus larvae followed by stirring (final compound concentration: 0.001%).
# Insect mortality rates were invested 2 days after allowing to stand at 25° C. The test was repeated twice.
compound,measurement,setting,value
Cc1cc(Cl)ccc1N=CN(C)C [chlordimeform],insect mortality rate,Spodoptera litura,40%
same,insect mortality rate,[1],40%
same,insect mortality rate,Pseudaletia separata,40%
Cc1nc(N(C)C)nc(OC(=O)N(C)C)c1C [pirimicarb],insect mortality rate,Aphis gossypii,9%
"N-{[5-(3,5-dichlorophenyl)-5-trifluoromethyl-4,5-dihydroisoxazol-3-yl]indan-1-yl}-propionic acid amide [1-6]",insect mortality rate,Culex pipiens molestus,≥ 90%
